This passage reports Emax, EC50 and Imax results from ChEMBL document CHEMBL4739717, “Methods of treating cartilage disorders through inhibition of clk and dyrk” (2020).

Each structure is given as a SMILES string.

Experiment [1] can be described thus: Induction of chondrogenesis in human MSC assessed as maximum activity at 30 nM incubated for 6 days by rhodamine B and Nile red staining based imaging analysis relative to control. The note with it: BMMSC, 144 h, time 6 day. The format is functional.
Experiment [2] can be described thus: Effect on Wnt signaling pathway in human SW480 cells harbouring TCF/LEF luciferase reporter gene and SP5-Luc reporter gene incubated for 36 to 48 hrs by luminescence assay. It counts as cell-based.
Experiment [3] concerns the target Dual specificity tyrosine-phosphorylation-regulated kinase 1A (Homo sapiens, UniProt Q13627). In words: Inhibition of recombinant DYRK1A (unknown origin) using Ser/Thr 18 peptide as substrate incubated for 1 hr in presence of ATP by FRET assay.
The nature of experiment [4]: Inhibition of IL1-beta induced MMP3 expression levels in human chondrocytes assessed as MMP3 levels incubated for 2hrs followed by IL1-beta stimulation and measured after overnight incubation by LANCE assay. It counts as functional, cell-based. To be noted: Chondrocyte. (In general: Time-resolved FRET reads energy transfer from a long-lived donor to a nearby acceptor.)

A short description of experiment [5]: Inhibition of IL1-beta induced MMP3 expression levels in human chondrocytes assessed as MMP3 levels incubated for 2hrs followed by IL1-beta stimulation and measured after overnight incubation by LANCE assay relative to control. The format is functional, Chondrocyte.
Experiment [6] deals with Dual specificity protein kinase CLK3 (Homo sapiens, UniProt P49761). In words: Inhibition of recombinant CLK3 (unknown origin) using Ser/Thr 18 peptide as substrate incubated for 1 hr in presence of ATP by FRET assay.
Experiment [7] is described as follows: Induction of chondrogenesis in human MSC assessed as maximum activity at 300 nM incubated for 6 days by rhodamine B and Nile red staining based imaging analysis relative to control. It counts as functional. The note with it: BMMSC, 144 h, time 6 day.
A short description of experiment [8]: Induction of chondrogenesis in human MSC assessed as incubated for 6 days by rhodamine B and Nile red staining based imaging analysis. The format is functional. The note with it: bmmsc.
A short description of experiment [9]: Induction of chondrogenesis in human MSC assessed as maximum activity at 100 nM incubated for 6 days by rhodamine B and Nile red staining based imaging analysis relative to control. It counts as functional. The note with it: BMMSC, 144 h, time 6 day.

Sequence of Dual specificity protein kinase CLK3 (P49761 whole entry): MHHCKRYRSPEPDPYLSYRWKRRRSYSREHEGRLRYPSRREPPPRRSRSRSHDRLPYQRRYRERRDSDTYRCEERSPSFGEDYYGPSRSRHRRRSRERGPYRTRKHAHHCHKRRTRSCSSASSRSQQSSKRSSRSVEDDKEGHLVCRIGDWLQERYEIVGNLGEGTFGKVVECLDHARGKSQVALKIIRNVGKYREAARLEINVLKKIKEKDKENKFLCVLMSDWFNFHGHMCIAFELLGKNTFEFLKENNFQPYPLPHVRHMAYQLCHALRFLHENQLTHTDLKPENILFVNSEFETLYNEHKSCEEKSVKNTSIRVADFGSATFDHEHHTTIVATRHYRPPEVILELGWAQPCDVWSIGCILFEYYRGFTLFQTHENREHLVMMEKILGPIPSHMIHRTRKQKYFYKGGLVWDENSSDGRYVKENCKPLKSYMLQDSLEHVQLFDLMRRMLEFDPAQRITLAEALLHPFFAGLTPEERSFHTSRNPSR

Broadly, the Emax is the size of the effect at its maximum, as opposed to the concentration needed. The term EC50 denotes the concentration needed to bring the measured effect to its halfway point. With `CCCC(=O)Nc1cncc(-c2ccc3[nH]nc(-c4nc5c(N6CCCCC6)cncc5[nH]4)c3c2)c1`, the Emax at 0.03 µM in experiment [1] came out at 77.3%. Further, the values for the EC50 in experiment [2], in [3] and in experiment [4] were 42 nM, 14 nM and 20.5 nM, respectively. In addition, the Imax in [5] came out at 39%.
Take `Cn1ncc(-c2ccc3cnc(NC(=O)C4CCN(C(=O)c5ccccc5)CC4)cc3c2)c1CN1CCCCC1`: the EC50 in experiment [2] was 706 nM; in [3], 3 nM; in [4], 35 nM. Besides, in experiment [5], the Imax was 51%.
With `O=C(Nc1cncc(-c2ccc3[nH]nc(-c4nc5c(-c6cccs6)cccc5[nH]4)c3n2)c1)C1CC1`, the concentration giving a half-maximal response (EC50) in experiment [2] was 3380 nM; in [3], over 10000 nM; in experiment [6] it was over 10000 nM; in experiment [4] it was 6.7 nM. Besides, the Imax in experiment [5] is 72%.
As for `CC(C)N1CCC(n2cc(C(=O)Nc3cc4cc(-c5cn(C)nn5)ccc4cn3)cn2)CC1`, the EC50 in experiment [2] was 32.7 nM; in experiment [4], 492 nM. Further, the Imax in experiment [5] was determined as 91%.
Consider `Cn1ncc(-c2ccc3cnc(NC(=O)c4ccnc(N5CCOCC5)c4)cc3c2)c1CN1CCOCC1`, for which the 50% effective concentration (EC50) in experiment [4] turned out to be 3000 nM. Moreover, the Imax in experiment [5] is recorded as 70%.
As for `CN(C)C1CN(c2ncc(C(=O)Nc3cc4cc(-c5cnn(C)c5)ccc4cn3)s2)C1`, the figures for the 50% effective concentration (EC50) in experiment [2] and in experiment [4] were 1320 nM and 71.4 nM, respectively. Also, the Imax in [5] came out at 0%.
With `CN(C)CCOc1cncc(-c2cc3c(-c4cc5c(-c6ccc(F)cc6)nccc5[nH]4)n[nH]c3cn2)c1`, the maximal effect (Emax) at 0.3 µM in experiment [7] is 113%. Moreover, the 50% effective concentration (EC50) is 3000 nM in experiment [2], 43 nM in experiment [3], over 10000 nM in experiment [6] and 900 nM in [8].
For the compound `CN1CCN(c2ccnc3[nH]c(-c4n[nH]c5ccc(-c6cn[nH]c6)nc45)cc23)CC1`, the maximal response (Emax) at 0.3 µM in experiment [7] came to 60.1%. For the same compound, the EC50 in experiment [2] is over 10000 nM; in experiment [3] it was 49 nM; in experiment [6] it was over 10000 nM; in experiment [8], 300 nM.
Take `CN1CCN(c2cc(C(=O)Nc3cc4cc(-c5cncs5)ccc4cn3)ccn2)CC1`: the Emax at 0.03 µM in experiment [1] stood at 22.3%. Also, the EC50 in experiment [4] is 423 nM. Moreover, in [5], the Imax turned out to be 100%.
Consider `O=C(Nc1cccnc1)c1n[nH]c2ccc(-c3cncc(CN4CCS(=O)(=O)CC4)c3)cc12`, for which the values for the EC50 in experiment [2], in [3] and in [4] were 210 nM, 2 nM and 616 nM, respectively. For the same compound, the Imax in [5] is on record as 8.6%.
The corresponding values for `CO[C@H]1CC[C@H](C(=O)Nc2cc3cc(-c4cnn(C)c4CN4CCCCC4)ccc3cn2)CC1` are 471 nM, 2 nM, 3000 nM and 0.2%.
In the case of `O=C(Nc1c[nH]nc1C(=O)Nc1cccnc1)c1cccnc1`, the results for the EC50 in experiment [2], in [3] and in experiment [4] were 20.5 nM, 12 nM and 38.9 nM, respectively. Also, in experiment [5], the Imax was found to be 100%.
On the same counts, the results for `NC(=O)c1ccc(NC(=O)c2n[nH]c3ccc(-c4cncc(CN5CCCCC5)c4)cc23)cn1` are 13 nM, 1 nM, 2220 nM and 100%.
As to `O=C(Nc1c[nH]nc1C(=O)Nc1ccc(N2CCCC2)nc1)c1cncc(OC2CCNCC2)c1`, the EC50 in [2] turned out to be 2.5 nM; in experiment [3], 9 nM; in experiment [4], 3000 nM. For the same compound, in experiment [5], the Imax turned out to be 80%.
As for `Cn1cc(-c2ccc3cnc(NC(=O)c4ccnc(N5CC6CC5CN6)c4)cc3c2)cn1` (stereo unspecified), in experiment [4], the concentration for a half-maximal effect (EC50) was determined as 3000 nM. Also, the Imax in experiment [5] is given as 69%.
As to `c1cnc2cc(-c3n[nH]c4ccc(-c5cncc(CN6CCCCC6)c5)cc34)[nH]c2c1`, the concentration giving a half-maximal response (EC50) in experiment [2] turned out to be 165 nM; in experiment [3], 5 nM; in experiment [4], 319 nM. Also, the Imax in experiment [5] is recorded as 100%.
`Cn1cc(-c2ccc3cnc(NC(=O)c4ccnc(OC5CNC5)c4)cc3c2)cn1`: the EC50 in experiment [4] was 154 nM. Also, the Imax in experiment [5] stood at 100%.
With `CN1CCC(n2cc(NC(=O)c3n[nH]c4ccc(-c5cnn(C)c5)cc34)cn2)CC1`, the concentration giving a half-maximal response (EC50) in [2] is 79 nM; in experiment [3], 1 nM; in experiment [4], 818 nM. Also, in experiment [5], the Imax is 100%.
`O=C(Nc1ccc(C(=O)N2CCCC2)nc1)c1n[nH]c2ccc(-c3cncc(CN4CCCCC4)c3)cc12`: the EC50 turned out to be 30 nM in experiment [2], 1 nM in [3] and 3000 nM in experiment [4]. For the same compound, the Imax in experiment [5] was 100%.
Take `COc1cncc(C#Cc2c[nH]nc2C(=O)Nc2ccc(OCCN3CCCC3)nc2)c1`: the EC50 is 1210 nM in experiment [2], 19 nM in experiment [3], over 10000 nM in experiment [6] and 3000 nM in experiment [4]. Moreover, the Imax in experiment [5] worked out at 2.4%.
As for `CC(C)(C)C(=O)Nc1cncc(-c2ccc3[nH]nc(-c4nc5c(-c6cccnc6)cncc5[nH]4)c3c2)c1`, the concentration giving a half-maximal response (EC50) amounted to 85.4 nM in experiment [2], 5 nM in experiment [3] and 1100 nM in experiment [4]. Moreover, the Imax in experiment [5] is listed as 100%.
In the case of `O=C(Nc1cncc(-c2ccc3[nH]nc(-c4nc5c(-c6cccc(F)c6)cccc5[nH]4)c3n2)c1)C1CC1`, the 50% effective concentration (EC50) in [2] is 1080 nM; in [3], over 10000 nM; in experiment [6], over 10000 nM; in experiment [4] it was 0.2 nM. Further, in [5], the Imax is listed as 70%.
Regarding `CN1CCC(Oc2ccc3[nH]c(-c4n[nH]c5ccc(-c6cnn(C)c6)cc45)nc3c2)CC1`, the 50% effective concentration (EC50) was determined as 18.3 nM in experiment [2], 2 nM in experiment [3] and 170 nM in experiment [4]. Moreover, the Imax in experiment [5] came to 100%.
Take `Cn1cc(-c2cnc3[nH]nc(-c4cc5cccnc5[nH]4)c3c2)cn1`: the Emax at 0.3 µM in experiment [7] came out at 51.7%. Further, the EC50 in experiment [2] was over 10000 nM; in [3] it was 8 nM; in [6] it was over 10000 nM; in [8] it was 300 nM.
As to `Fc1ccc(-c2cncc3[nH]c(-c4n[nH]c5cnc(-c6cncc(CN7CCCC7)c6)cc45)nc23)s1`, the EC50 in experiment [2] turned out to be 470 nM; in experiment [3] it was 8 nM; in experiment [4], 3000 nM. Moreover, the Imax in experiment [5] amounted to 81%.
On the same counts, the results for `O=C(Nc1c[nH]nc1C(=O)Nc1ccc(N2CCCCC2)nc1)c1cncc(OC2CCNCC2)c1` are 662 nM, 10 nM, 3000 nM and 71%.
Consider `Cc1ccncc1-c1ccc2[nH]nc(-c3cc4c(-c5ccncc5)ccnc4[nH]3)c2n1`, for which the Emax at 0.3 µM in experiment [7] was 56.5%. The concentration for a half-maximal effect (EC50) in experiment [2] is over 10000 nM; in experiment [3], 66 nM; in experiment [6] it was over 10000 nM; in experiment [8] it was 300 nM.
As to `O=C(Nc1ccc(CN2CCCC2)cc1)c1n[nH]c2ccc(-c3cnn(C4CC4)c3)cc12`, the EC50 in experiment [2] was 451 nM; in [3], 4 nM; in experiment [4], 3000 nM. Besides, in [5], the Imax was determined as 57%.
Consider `O=C(Nc1cncc(-c2ccc3[nH]nc(-c4nc5c(-c6ccccn6)ccnc5[nH]4)c3n2)c1)c1ccccc1`, for which the EC50 in experiment [2] is over 10000 nM; in experiment [3], over 10000 nM; in [6], over 10000 nM; in experiment [4], 5.1 nM. The Imax in experiment [5] amounted to 67%.
On to `Cc1n[nH]c2ccc(-c3cncc(NCC4(F)CNC4)n3)cc12`, for which the EC50 in [2] is 780 nM; in [3], 11 nM; in [4], 2270 nM. The Imax in [5] is given as 100%.
Regarding `c1cncc(-c2ccc3[nH]nc(-c4nc5c(N6CCOCC6)cncc5[nH]4)c3c2)c1`, the maximal response (Emax) at 0.03 µM in [1] came out at 90.4%. In addition, the EC50 stood at 23 nM in experiment [2], 2 nM in experiment [3] and 13.6 nM in experiment [4]. For the same compound, the Imax in experiment [5] amounted to 100%.
`COc1cncc(C(=O)Nc2c[nH]nc2C(=O)Nc2ccc3c(c2)CCNC3)c1`: the figures for the EC50 in experiment [2], in experiment [3] and in experiment [4] were 613 nM, 8 nM and 342 nM, respectively. Moreover, the Imax in experiment [5] stood at 76%.
The corresponding values for `CN1CCC(Nc2ccc(NC(=O)c3n[nH]c4cc(F)c(-c5cnn(C)c5)cc34)cn2)CC1` are 230 nM, 2 nM, 1160 nM and 100%.
As to `O=C(Nc1cc2cc(-c3cncc(CN4CCC(O)CC4)c3)ccc2cn1)c1ccc(F)cc1`, the EC50 in experiment [2] was found to be 382 nM; in experiment [4], 2.9 nM. Besides, in experiment [5], the Imax amounted to 3.7%.
Consider `O=C(Nc1c[nH]nc1-c1nc2c(-c3cccc(F)c3)cccc2[nH]1)c1cccnc1`, for which the concentration for a half-maximal effect (EC50) came out at 2.9 nM in experiment [2], 4 nM in [3] and 76.5 nM in [4]. Also, the Imax in [5] was 100%.
Regarding `CC(C)CC(=O)Nc1cncc(-c2ccc3[nH]nc(-c4nc5c(-c6cccnc6)cncc5[nH]4)c3c2)c1`, the EC50 turned out to be 12 nM in [2], 12 nM in experiment [3], 100 nM in experiment [8] and 111 nM in experiment [4]. Moreover, the Emax at 0.1 µM in [9] is 198%. Moreover, the Imax in experiment [5] was 100%.
Turning to `COc1cncc(C#Cc2c[nH]nc2C(=O)Nc2ccc(OC3CCN(C)CC3)nc2)c1`, the EC50 was 3570 nM in experiment [2], 9 nM in experiment [3], over 10000 nM in experiment [6] and 3000 nM in experiment [4]. Moreover, the Imax in experiment [5] worked out at 3.4%.
